Holding throughout (assay type): in vivo
For one assay, the system named is Kochia (Kochia scoparia). Put plainly: Test A preemergence. To be noted: Bassia scoparia, pre-emergence, 240 h. In short, it runs like this: (§1)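 Preemergence directed soil spray on seeded pots, or postemergence application to plants 2–10 cm, one- to two-leaf. Solvent mixture non-phytotoxic, with surfactant. Scored ~10 d later, visually, 0–100 vs untreated.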
In assay [1] the test system is barnyardgrass (Echinochloa crus-galli). Description: Test A preemergence. To be noted: Echinochloa crus-galli, pre-emergence, 240 h. In short, it runs like this: as §1
Assay [2] concerns giant foxtail (Setaria faberii). Description: Test A preemergence. The following applies: Setaria faberi, pre-emergence, 240 h. Summed up:
as §1

Assay [3] has as its system pigweed (Amaranthus retroflexus). Put plainly: Test A preemergence. To be noted: Amaranthus retroflexus, pre-emergence, 240 h.
The subject of assay [4] is ragweed (common ragweed, Ambrosia elatior). Put plainly: Test A preemergence. To be noted: Ambrosia artemisiifolia, pre-emergence, 240 h. In short, it runs like this: as §1
Assay [5] deals with ryegrass, Italian (Italian ryegrass, Lolium multiflorum). Description: Test A preemergence. To be noted: Lolium multiflorum, pre-emergence, 240 h. In short, it runs like this:
as §1

Assay [6] has as its system Galium (catchweed bedstraw, Galium aparine). Description: Test A postemergence. The following applies: Galium, post-emergence, 240 h, 125 g ai/ha, postemergence, visual injury rating after approximately 10 d; read-out: Galium plant response rating (0 to 100 scale, 0 no effect, 100 complete control). In short, it runs like this: as §1
The subject of assay [7] is barnyardgrass (Echinochloa crus-galli). Put plainly: Test A postemergence. The following applies: Echinochloa crus-galli, post-emergence, 240 h, 125 g ai/ha, postemergence, visual injury rating after approximately 10 d; read-out: Barnyardgrass plant response rating (0 to 100 scale, 0 no effect, 100 complete control). Summed up:
as §1

Assay [8] deals with blackgrass (Alopecurus myosuroides). Put plainly: Test A postemergence. To be noted: Alopecurus myosuroides, post-emergence, 240 h, 125 g ai/ha, postemergence, visual injury rating after approximately 10 d; read-out: Blackgrass plant response rating (0 to 100 scale, 0 no effect, 100 complete control). Summed up:
as §1

In another assay the test system is corn (Zea mays). Put plainly: Test A postemergence. To be noted: Zea mays, post-emergence, 240 h, 125 g ai/ha, postemergence, visual injury rating after approximately 10 d; read-out: Corn plant response rating (0 to 100 scale, 0 no effect, 100 complete control). In short, it runs like this:
as §1

In assay [9] the test system is giant foxtail (Setaria faberii). Description: Test A postemergence. To be noted: Setaria faberi, post-emergence, 240 h, 125 g ai/ha, postemergence, visual injury rating after approximately 10 d; read-out: Foxtail, Giant plant response rating (0 to 100 scale, 0 no effect, 100 complete control). Summed up:
as §1

Assay [10] deals with pigweed (Amaranthus retroflexus). Put plainly: Test A postemergence. The following applies: Amaranthus retroflexus, post-emergence, 240 h, 125 g ai/ha, postemergence, visual injury rating after approximately 10 d; read-out: Pigweed plant response rating (0 to 100 scale, 0 no effect, 100 complete control). Summed up: as §1
The subject of assay [11] is ragweed (common ragweed, Ambrosia elatior). Put plainly: Test A postemergence. To be noted: Ambrosia artemisiifolia, post-emergence, 240 h, 125 g ai/ha, postemergence, visual injury rating after approximately 10 d; read-out: Ragweed plant response rating (0 to 100 scale, 0 no effect, 100 complete control). In short, it runs like this: as §1
The subject of assay [12] is ryegrass, Italian (Italian ryegrass, Lolium multiflorum). Description: Test A postemergence. To be noted: Lolium multiflorum, post-emergence, 240 h, 125 g ai/ha, postemergence, visual injury rating after approximately 10 d; read-out: Ryegrass, Italian plant response rating (0 to 100 scale, 0 no effect, 100 complete control). Summed up:
as §1

For assay [13], the system named is wheat (Triticum aestivum). Put plainly: Test A postemergence. The following applies: Triticum aestivum, post-emergence, 240 h, 125 g ai/ha, postemergence, visual injury rating after approximately 10 d; read-out: Wheat plant response rating (0 to 100 scale, 0 no effect, 100 complete control). In short, it runs like this: as §1

Drawing on patent publication US12077503B2, “Substituted cyclic amides and their use as herbicides” (FMC CORPORATION, priority 2015, dated 2024), this text covers pest or weed control and plant injury for one compound.

As for `CN1C[C@H](c2cccc(F)c2)[C@@H](C(=O)Nc2ccccc2C(F)(F)F)C1=O` [Compound 823], the pest or weed control at 125 g/ha with Kochia (Kochia scoparia) (125 g ai/ha, preemergence, 0 to 100 scale where 0 is no effect and 100 is complete control, read-out: Kochia plant response rating) was found to be 0%; in assay [1] (125 g ai/ha, preemergence, 0 to 100 scale where 0 is no effect and 100 is complete control, read-out: Barnyardgrass plant response rating) it was 90%; in [2] (125 g ai/ha, preemergence, 0 to 100 scale where 0 is no effect and 100 is complete control, read-out: Foxtail, Giant plant response rating), 100%; in assay [3] (125 g ai/ha, preemergence, 0 to 100 scale where 0 is no effect and 100 is complete control, read-out: Pigweed plant response rating), 0%; in assay [4] (125 g ai/ha, preemergence, 0 to 100 scale where 0 is no effect and 100 is complete control, read-out: Ragweed plant response rating) it was 0%; in assay [5] (125 g ai/ha, preemergence, 0 to 100 scale where 0 is no effect and 100 is complete control, read-out: Ryegrass, Italian plant response rating), 30%. Besides, the pest or weed control at 125 g/ha in assay [6] was 30%; in assay [7], 90%; in assay [8] it was 20%; in [9], 90%; in assay [10], 20%; in assay [11], 20%. In [12], the pest or weed control at 125 g/ha turned out to be 0%. Besides, the pest or weed control at 500 g/ha with Kochia (Kochia scoparia) (500 g ai/ha, Preemergence, visual injury vs untreated controls after approximately 10 d, read-out: Kochia plant response rating (0 to 100 scale where 0 is no effect and 100 is complete control)) came to 70%; in assay [1] (500 g ai/ha, Preemergence, visual injury vs untreated controls after approximately 10 d, read-out: Barnyardgrass plant response rating (0 to 100 scale where 0 is no effect and 100 is complete control)), 100%; in assay [2] (500 g ai/ha, Preemergence, visual injury vs untreated controls after approximately 10 d, read-out: Foxtail, Giant plant response rating (0 to 100 scale where 0 is no effect and 100 is complete control)), 100%; in assay [3] (500 g ai/ha, Preemergence, visual injury vs untreated controls after approximately 10 d, read-out: Pigweed plant response rating (0 to 100 scale where 0 is no effect and 100 is complete control)), 50%; in assay [4] (500 g ai/ha, Preemergence, visual injury vs untreated controls after approximately 10 d, read-out: Ragweed plant response rating (0 to 100 scale where 0 is no effect and 100 is complete control)), 40%; in assay [5] (500 g ai/ha, Preemergence, visual injury vs untreated controls after approximately 10 d, read-out: Ryegrass, Italian plant response rating (0 to 100 scale where 0 is no effect and 100 is complete control)), 60%. Besides, the plant injury at 125 g/ha (in the assay with corn (Zea mays); in [13]) was 0% throughout.
